Where “and” joins values, the source holds several entries; their conditions need not be identical. Identical values can stand only once.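 In this assay, cells in 96-well plates receive the compound at five concentrations for 48 hours. Endpoints are linearly interpolated between the surrounding concentrations. GI50 = concentration required for 50% inhibition of growth. TGI: total growth inhibition.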
Assays:
Test in all cases: DTP human tumour cell line panel, 48 h
A498 renal = tested on: A498 renal
EKVX NSCLC = tested on: EKVX NSCLC
HOP-62 NSCLC = tested on: HOP-62 NSCLC
HOP-92 NSCLC = tested on: HOP-92 NSCLC
M14 melanoma = tested on: M14 melanoma
MCF7 breast = tested on: MCF7 breast
OVCAR-3 ovarian = tested on: OVCAR-3 ovarian
UACC-62 melanoma = tested on: UACC-62 melanoma
BT-549 breast = tested on: BT-549 breast
PC-3 prostate = tested on: PC-3 prostate

| Compound | TGI (A498 renal) | GI50 (EKVX NSCLC) | TGI (EKVX NSCLC) | GI50 (HOP-62 NSCLC) | TGI (HOP-62 NSCLC) | GI50 (HOP-92 NSCLC) | TGI (HOP-92 NSCLC) | TGI (M14 melanoma) | TGI (MCF7 breast) | GI50 (OVCAR-3 ovarian) | TGI (OVCAR-3 ovarian) | GI50 (UACC-62 melanoma) | TGI (UACC-62 melanoma) | GI50 (A498 renal) | GI50 (BT-549 breast) | TGI (BT-549 breast) | GI50 (M14 melanoma) | GI50 (MCF7 breast) | GI50 (PC-3 prostate) | TGI (PC-3 prostate) |
| --- | --- | --- | --- | --- | --- | --- | --- | --- | --- | --- | --- | --- | --- | --- | --- | --- | --- | --- | --- | --- |
| Cc1c2ccncc2c(C)c2c1[nH]c1ccc(Cl)cc12 | 14.7 µM | 3.9 µM | 12.6 µM and 19.3 µM | 2.66 µM | 13.9 µM and 9.86 µM | 6.56 µM and 1.93 µM | 17.5 µM and 9.11 µM | 16.7 µM | 6.28 µM | 4.62 µM | 5.71 µM and 16.6 µM | 4.13 µM | 11.1 µM and 17 µM |  |  |  |  |  |  |  |
| O=C(Nc1nc2ccccc2s1)c1cc(-c2ccc(F)cc2)n2nc(-c3ccccc3)cc2n1 | 5.49 µM | 6.69 µM | > 100 µM | 2.24 µM | 7.02 µM | 1.69 µM | 5.06 µM | > 100 µM | > 100 µM |  |  | 3.79 µM | > 100 µM | 1.86 µM | 2.05 µM | 6.5 µM | 3.13 µM | 5.29 µM |  |  |
| CC(=O)NC(CCCN(Cc1ccccc1)C(=O)N(C)N=O)C(=O)NCc1ccccc1 (configuration not stated) | > 100 µM |  | > 100 µM |  | > 100 µM |  | > 100 µM | > 100 µM |  |  | > 100 µM |  | > 100 µM |  |  |  |  |  |  |  |
| Cc1ccc2nc(NC(=O)C(=O)CC(=O)c3cccc4ccccc34)sc2c1 | > 100 µM |  | > 100 µM |  | 56.9 µM |  | 69.9 µM | 44.2 µM |  |  | 49.6 µM |  | 86.8 µM |  |  |  |  |  |  |  |
| O=Cc1ccc(N2CCN(c3ccc(C=O)cc3)CC2)cc1 |  | > 100 µM | > 100 µM | > 100 µM | > 100 µM | > 100 µM | > 100 µM | > 100 µM | > 100 µM | > 100 µM | > 100 µM | 9.36 µM | > 100 µM |  |  |  | > 100 µM | 97.7 µM | > 100 µM | > 100 µM |
| c1ccc(-c2ccnc3c2ccc2c(-c4ccccc4)ccnc23)cc1 | 6.99 µM |  | 5.53 µM |  | 7.86 µM |  |  | 17.6 µM |  |  | 10.1 µM |  | 2.25 µM |  |  |  |  |  |  |  |
| O=C1C=Cc2ncccc2C1=O | > 91.5 µM |  | 47.5 µM |  | > 82.9 µM |  | 42.5 µM | 32 µM |  |  | 46.9 µM |  | 31.1 µM |  |  |  |  |  |  |  |

From PubChem BioAssay (NCI)
